pIC50: −log10 of the molar value.
What was measured:
BRD4 BD1 = BRD4 BD1 (Homo sapiens (Human), UniProt O60885); assay: NanoBRET bromodomain assay, NanoLuc-BRD4-BD1 fusion in HEK293 cells; assay type: cell-based; details: top concentration 10 μM
BRD4 BD2 = BRD4 BD2 (Homo sapiens (Human), UniProt O60885); assay: NanoBRET bromodomain assay, NanoLuc-BRD4-BD2 fusion in HEK293 cells; details: for pIC50: BRD4 BD2 (IC50), NanoBRET, HEK293 cells, top concentration 10 μM; for Fold selectivity: IC50 for BRD4 BD1 divided by IC50 for BRD4 BD2, qualitative if an IC50 is at the upper limit;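 on all read-outs here: tracer displacement BRET read in transfected cells after 2 h compound exposure at 37 °C, signal in milliBRET units corrected against no-tracer background wells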

Row | SMILES | pIC50 (BRD4 BD1) | pIC50 (BRD4 BD2) | Fold selectivity (BRD4 BD2)
1 | CNC(=O)c1[nH]c(-c2ccccc2)cc1O[C@@H](C)c1ccccc1 [Example 84, (S)-N-methyl-5-phenyl-3-(1-phenylethoxy)-1H-pyrrole-2-carboxamide] | ≤ 5.00 | 5.00 to 6.00 | X (Fold >2 and ≤50)
2 | CNC(=O)c1[nH]c(-c2ccccc2F)cc1O[C@@H](C)c1ccccc1 [Example 85, (S)-5-(2-fluorophenyl)-N-methyl-3-(1-phenylethoxy)-1H-pyrrole-2-carboxamide] | ≤ 5.00 | 5.00 to 6.00 | X (Fold >2 and ≤50)
3 | CNC(=O)c1[nH]c(-c2ccc(F)cc2F)cc1O[C@@H](C)c1ccccc1 [Example 86, (S)-5-(2,4-difluorophenyl)-N-methyl-3-(1-phenylethoxy)-1H-pyrrole-2-carboxamide] | ≤ 5.00 | 5.00 to 6.00 | X (Fold >2 and ≤50)
4 | CNC(=O)c1[nH]c(-c2nc(C)c(C)[nH]2)cc1O[C@@H](C)c1ccccc1 [Example 87, (S)-5-(4,5-dimethyl-1H-imidazol-2-yl)-N-methyl-3-(1-phenylethoxy)-1H-pyrrole-2-carboxamide] | ≤ 5.00 | 6.70 to 7.30 | XX (Fold >50 and ≤200)
5 | CNC(=O)c1[nH]c(-c2cnn(C)c2)cc1O[C@@H](C)c1ccccc1 [Example 88, (S)-N-methyl-5-(1-methyl-1H-pyrazol-4-yl)-3-(1-phenylethoxy)-1H-pyrrole-2-carboxamide] | ≤ 5.00 | 6.70 to 7.30 | XX (Fold >50 and ≤200)
6 | CNC(=O)c1[nH]c(-c2ncc[nH]2)cc1O[C@@H](C)c1ccccc1 [Example 89, (S)-5-(1H-imidazol-2-yl)-N-methyl-3-(1-phenylethoxy)-1H-pyrrole-2-carboxamide] | ≤ 5.00 | 6.70 to 7.30 | XX (Fold >50 and ≤200)
7 | CNC(=O)c1[nH]c(-c2cc(C)nc(C)c2)cc1O[C@@H](C)c1ccccc1 [Example 90, (S)-5-(2,6-dimethylpyridin-4-yl)-N-methyl-3-(1-phenylethoxy)-1H-pyrrole-2-carboxamide] | ≤ 5.00 | 6.00 to 6.70 | X (Fold >2 and ≤50)

More lines, now with the values ahead:

Row | pIC50 (BRD4 BD1) | pIC50 (BRD4 BD2) | Fold selectivity (BRD4 BD2) | SMILES
8 | ≤ 5.00 | 6.70 to 7.30 | XX (Fold >50 and ≤200) | CNC(=O)c1[nH]c(C(=O)NC(C)C)cc1O[C@@H](C)c1ccccc1F [Example 58, (S)-3-(1-(2-fluorophenyl)ethoxy)-N^5-isopropyl-N^2-methyl-1H-pyrrole-2,5-dicarboxamide]
9 | ≤ 5.00 | 6.70 to 7.30 | XX (Fold >50 and ≤200) | CNC(=O)c1[nH]c(C(=O)NCC(F)(F)F)cc1O[C@@H](C)c1ccc(Cl)cc1 [Example 60, (S)-3-(1-(4-chlorophenyl)ethoxy)-N^2-methyl-N^5-(2,2,2-trifluoroethyl)-1H-pyrrole-2,5-dicarboxamide]
10 | ≤ 5.00 | 6.70 to 7.30 | XX (Fold >50 and ≤200) | CNC(=O)c1[nH]c(-c2cc(C)nn2C)cc1O[C@@H](C)c1ccccc1 [Example 81, (S)-5-(1,3-dimethyl-1H-pyrazol-5-yl)-N-methyl-3-(1-phenylethoxy)-1H-pyrrole-2-carboxamide]
11 | ≤ 5.00 | < 5.00 | — (Fold ≥0 and ≤2) | CNC(=O)c1[nH]c(-c2cc(C)nn2C)cc1O[C@H](C)c1ccccc1 [Example 82, (R)-5-(1,3-dimethyl-1H-pyrazol-5-yl)-N-methyl-3-(1-phenylethoxy)-1H-pyrrole-2-carboxamide]
12 | ≤ 5.00 | > 7.30 | XXX (Fold >200) | CNC(=O)c1[nH]c(-c2cnn(C(F)(F)F)c2)cc1O[C@@H](C)c1ccccc1 [Example 83, (S)-N-methyl-3-(1-phenylethoxy)-5-(1-(trifluoromethyl)-1H-pyrazol-4-yl)-1H-pyrrole-2-carboxamide]
